According to patent US6194451A, “Matrix metalloproteinase inhibitors” (Pharmacia & Upjohn S.p.A., priority 1997, dated 2001):

Legend:
[1] = biological target: T1, MMP-1 (human interstitial collagenase) (Homo sapiens, UniProt P03956); test: Biochemical Assay (Protocol A): inhibition of human collagenase, fluorimetric peptide substrate; details: MMP-1, pH 7.4, 37° C.
T1 construct: truncated recombinant enzyme encompassing residues 101-269
T1 sequence (P03956 101-269): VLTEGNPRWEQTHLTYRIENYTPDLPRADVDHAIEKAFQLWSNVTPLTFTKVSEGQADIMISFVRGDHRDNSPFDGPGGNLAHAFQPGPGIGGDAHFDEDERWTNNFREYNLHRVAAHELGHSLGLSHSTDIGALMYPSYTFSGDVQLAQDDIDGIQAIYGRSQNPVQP
Text: As mentioned above, although low molecular weight MMP inhibitors, including hydroxamates of general formula (A), are already known, there is a strong need for better and diversified molecules for their use in medicine, that is in particular in the control or prevention of degenerative joint diseases such as rheumatoid arthritis and osteoarthritis, or in the management of multiple sclerosis, or in the treatment of invasive tumors. […] For example, the following protocol was used to assess the biochemical activity of compounds of formula (I) against MMP-1, MMP-2, and MMP-3 (respectively, human interstitial collagenase, gelatinase A, and stromelysin-1).
Human gelatinase-A (MMP-2) was obtained as pro-enzyme (72 kDa) and was activated with 1 mM 4-aminophenylmercuric acetate for 30 min at 37° C. immediately prior to use. Human stromelysin-1 (MMP-3) was obtained as a recombinant pro-enzyme isolated either from E. coli or from baculovirus infected Sf9 insect cells and activated either by heat (1 h, 55° C.) or by 5 mg/l trypsin (30 min, 37° C.) before addition of soybean trypsin inhibitor, finally removed by centrifugation.
All enzyme assays to determine values of the enzyme-inhibitor dissociation constants were performed using the peptide substrate (7-methoxycoumarin-4-yl)Acetyl-Pro-Leu-Gly-Leu-(3-[2,4-dinitrophenyl]-L-2,3-diaminopropionyl)-Ala-Arg-NH2 (Mca-Pro-Leu-Gly-Leu-Dpa-Ala-Arg--NH2) (C. G. Knight et al., FEBS Lett. 296:263-266, 1992). The enzymes cleave at the Gly-Leu bond removing the internally quenching Dpa group. The release of the highly fluorescent peptide Mca-Pro-Leu was followed fluorimetrically setting the excitation wavelength at 326 nm (bandwidth 5 nm) and the emission at 392 nm (bandwidth 20 nm).
Continuous fluorescence assay was carried out using a Perkin Elmer LS-50 Fluorescence Spectrophotometer fitted with a thermostatted four position stirring cell changer. Inhibitors were dissolved in the assay buffer ([…] Tris/HCl pH 7.4 containing 0.15 M NaCl, 10 mM CaCl2, 0.01 mM ZnCl2 and 0.05% Brij 35) thermostatted at 37° C. The reaction was started by the addition of substrate ([…]), followed by the addition of the enzyme (e.g. 1.0 nM collagenase, 0.04 nM gelatinase, or 3.0 nM stromelysin) and the increase in fluorescence was monitored over 30 min. The run was repeated at different concentrations of inhibitors in the range 0.1-10000 nM and data at inhibitor concentration in the region if their enzyme-inhibitor dissociation constants were used for calculation.
Substrate consumption was within 5% of the initial concentration and data outside this range were discarded. The Michaelis constants (Km) for the enzyme-substrate complexes is […] or greater (C. G. Knight et al., reference above), so that the factor (1+S/Km) can be approximated to unity without appreciable error.

Aqueous solubility = type: physicochemical; details: water, pH 7.0, 25° C.
Protocol: Further, several compounds of formula (I), in particular when R2 is hydroxy, and when R1 is hydroxymethyl, have enhanced water solubility as compared to the vast majority of MMP inhibitors of the prior art. An aqueous solubility threshold, which may vary widely but can be roughly set in the range of 1-10 mg/mL, makes systemic administration easy, and more than often is essential to good oral bioavailability.

[2] = Pharmacokinetic Assay (Protocol C): plasma levels after i.v. and oral administration to rats; type: in vivo, rat (male Sprague-Dawley); details: 15 mg/kg
Protocol: Male rats (Sprague-Dawley; body weight about 250-300 g) were acclimatized for about one week before the start of the study. […] Before treatment, rats were overnight fasted. For each compound to be assessed, three rats were treated intravenously (injection in the tail vein as a bolus) with a single dose of 15 mg/kg (as free base or free acid if needed) body weight. Other three rats were treated orally (single bolus dose by gastric gavage) with 15 mg/kg of the same compound. In same cases, according to the detection limit of each particular compound, and its availability in stock, these standard doses were modified as needed.
Blood samples were collected into syringes especially prepared for use with the cannulated animals via the SCV cannula. Under standard conditions, blood samples (0.2 mL) were transferred into heparinized tubes at the following times: 0 (pre-dose), 2, 4, 8, 16, 30, 45, 60, 90 min, 2, 4, 6, 8 and 24 h after iv administration; 0 (pre-dose), 5, 10, 30, 45, 60, 90 min, 2, 4, 6, 8, and 24 h after oral administration. Plasma was obtained immediately by centrifugation (about 10,000 rpm for 3 min) and stored at -80° C. till analysis. Plasma samples were assayed for parent drug concentrations using an appropriate analytical method. Under standard conditions, liquid chromatography--tandem mass spectrometry (LC/MS-MS) was used.
Non-compartmental pharmacokinetic calculations were performed with the aid of Pharm-NCA package (SIMED, France). Maximum plasma concentration, Cmax, and the corresponding time, tmax, were read as the coordinates of the highest raw-data point for individual plasma profiles. Terminal phase was evaluated by graphic judgement by eye; terminal rate constant, was calculated as the slope of the terminal linear portion of natural log-transformed plasma concentrations vs. time curve, obtained using linear regression. Terminal half-life, t1/2,z, was calculated as ln(2)/lz. The area under the plasma concentration-time curve was estimated by the linear trapezoidal rule up to the last measured concentration (AUC(0-tz)) and extrapolated to infinity assuming monoexponential decay, using the formula AUC=AUC(0-tz)+C(tz)/lz, where C(tz) is the measured concentration of the last point with detectable concentration. Following iv dosing, systemic clearance was obtained using the formula Cl=Dose/AUC. According to Protocol C, the pharmacokinetic in rats of some representative compounds within the present invention was evaluated. Significant pharmacokinetic data obtained in rats at a 15 mg/kg dose were as follows: […]

Ki [1]: 2.3 nM
solubility (Aqueous solubility): > 15 mg/mL
AUC iv ([2]; iv): 1.53 mg·min/mL
half-life ([2]; rat, plasma, terminal half-life, read-out: t1/2,z (converted)): 5.4 h
clearance ([2]; rat, plasma, iv): 9.89 mL/min/kg
AUC ([2]; rat, plasma, oral): 1100 ng·h/mL
Structure (SMILES): CNC(=O)[C@@H](NC(=O)[C@H](CC(C)C)[C@](O)(CO)C(=O)NO)C(C)(C)C [Example 3]
plasma clearance compared with literature hydroxamic acid MMP inhibitors ([2]; to our best knowledge): inferior to that reported for any hydroxamic acid MMP inhibitor disclosed in the literature
